This is an account of results in patent US20130039956A1, “USE OF NITROCARBOXYLIC ACIDS FOR THE TREATMENT, DIAGNOSIS AND PROPHYLAXIS OF AGGRESSIVE HEALING PATTERNS” (priority 2010, published 2013).

SMILES strings stand for the structures.

The test system of one assay is pericardial strips. Description: Cold induced injury in a whole tissue ex-vivo model (pericardium). The format is cell-based, Wistar rats. As to conditions: control sample incubated with all-caspase inhibitor before cold. The text has this:
To determine whether nitrated fatty acids can be used to preserve cells and tissues from cold or cryoinjury, an in vitro model utilizing murine epicardium was established. The experimental set-up should reduce the possibility of ischemia or reperfusion injury to a minimum, but at the same time allow differentiation of the contribution of ischemia/reperfusion injury-triggered cell death, which is known to occur almost exclusively via apoptosis, whereas cell death induced by cold injury almost exclusively results in necrosis.
The pericardial sac was carefully resected in 24 anesthetized Wistar rats (180-270 g) of either sex. Care was taken to grasp the pericardium with a forceps only at the cutting edges and reduce traumatization of the central portions of the pericardium to a minimum. After resection, the cutting edge and the former apex area of the pericardium were dissected, as to obtain flat tissue strips which were placed immediately in the culture medium (DMEM) containing 10% FCS and antibiotics (penicillin, streptomycin). Tissue samples were cultured in an oxygen atmosphere at 18° C. for 2 days. […] Then the pericardial strips were cut into 4 pieces of equal size. One piece was further cultivated at 37° C. without undergoing the cooling cycles, thus, serving as the control. In each of three investigations, one piece was bathed in a solution (0.9% saline and 1% SDS) containing 200 μmol nitro-fatty acid or contained 200 μmol of the corresponding native fatty acid, for 10 min at a temperature of 18° C. One piece of pericardium was bathed in a solution without fatty acids under otherwise identical conditions. All samples were cooled by continuously decreasing from ambient temperature at a rate of 3° C./min to a minimum temperature of […]. After 1 hour, the samples were rewarmed at a rate of 3° C./min by continuously increasing the temperature until a temperature of 18° C., was achieved. Thereafter an identical cooling and rewarming cycle was performed. After the second cooling cycle, the tissue pieces were further cultured in the culture medium for 1 day allowing continuous adaptation to an ambient temperature of 37° C. For analytical preparations the pericardial pieces were out and further processed. A direct TUNEL assay (Roche) was use for quantification of apoptosis, an annexin V/propidium iodide exclusion assay (Roche) was used to quantify the number of necrotic cells, and viability was determined by the WST-8 assay. Furthermore, the LDH release was quantified in the supernatants.
To rule out that cell death has been induced by ischemia or reperfusion (reoxygenation), in one series of experiments, a control sample was incubated with an all-caspase inhibitor (Q-VD-OPH, BioVision, USA) reconstituted in DMSO before the sample was exposed to cold.

Another assay addresses T1, TRPV-1 (Mus musculus, UniProt Q704Y3).
T1 construct: Whole retinas were isolated and cut into 100 μm slices using a tissue slicer; from tissue; host or cells: mouse retinal slices (100 μm)
Description: Signal transduction of receptors of the TRP-protein family in retinal slices. The format is cell-based, mice. The settings on record: preincubation (5 minutes) of TRPV-1 antagonist, saline specimens. As to the method:
In order to determine the effect of nitrated fatty acids on receptor signal transduction, an in vitro model was used. Retinal slices from cadaver mice were prepared as described by Snellman and Nawy (Snellman J. Nawy S (2004). cGMP-dependent kinase regulates response sensitivity of the mouse on bipolar cell. J Neurosci 24:6621-6628). Whole retinas were isolated and cut into 100 μm slices using a tissue slicer and than transferred to the recording chamber. The chamber was continuously perfused with Ames media and oxygenated. Picrotoxin (100 μM), strychnine (10 μM), and TPMPA (50 μM) were added. Each nitro fatty acid was added in two experiments to achieve a final concentration of 10 μmol, and in another two experiments to achieve a final concentration of 50 μmol. In two experiments, the corresponding native fatty acid was added to achieve a final concentration of 10 and 50 μmol, and in two experiments saline solution was added which served as controls. Currents were measured via tissue electrodes and monitored throughout the investigation. After incubating the solution for 2 hours, the TRPV-1 agonist capsaicin was added to achieve a final concentration of 10 μmol. Experiments were performed using either 10 mmol Hepes or 10 mmol Mes adjusting the pH of the solution to 6.4 or 4.4, respectively. Furthermore, experiments were performed without or with preincubation (5 minutes) of the TRPV-1 antagonist capsazepine. The solution temperature was held constant at 35° C.

T1 sequence (Q704Y3 whole entry): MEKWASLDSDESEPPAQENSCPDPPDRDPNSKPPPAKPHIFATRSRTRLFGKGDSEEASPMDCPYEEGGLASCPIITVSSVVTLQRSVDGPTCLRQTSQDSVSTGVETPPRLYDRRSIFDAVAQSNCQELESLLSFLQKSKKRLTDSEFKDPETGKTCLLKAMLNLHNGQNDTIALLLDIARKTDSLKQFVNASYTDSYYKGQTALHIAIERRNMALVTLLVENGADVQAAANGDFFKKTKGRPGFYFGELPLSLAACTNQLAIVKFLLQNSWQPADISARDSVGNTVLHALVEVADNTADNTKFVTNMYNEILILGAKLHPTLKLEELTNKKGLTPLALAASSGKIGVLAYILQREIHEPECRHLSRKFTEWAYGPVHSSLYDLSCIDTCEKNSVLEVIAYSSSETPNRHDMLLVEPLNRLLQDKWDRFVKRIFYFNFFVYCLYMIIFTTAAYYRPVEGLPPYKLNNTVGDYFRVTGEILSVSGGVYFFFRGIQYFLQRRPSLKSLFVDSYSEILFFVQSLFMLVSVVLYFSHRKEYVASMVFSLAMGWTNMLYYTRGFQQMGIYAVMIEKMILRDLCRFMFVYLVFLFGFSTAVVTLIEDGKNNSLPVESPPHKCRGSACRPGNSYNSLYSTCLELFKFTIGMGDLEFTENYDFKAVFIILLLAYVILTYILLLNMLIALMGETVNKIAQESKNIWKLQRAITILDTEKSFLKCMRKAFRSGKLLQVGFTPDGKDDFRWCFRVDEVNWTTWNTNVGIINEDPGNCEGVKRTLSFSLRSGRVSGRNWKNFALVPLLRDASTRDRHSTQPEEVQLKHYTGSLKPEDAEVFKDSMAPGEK

With `CC(C)[C@H](NC(=O)c1ccc2ccccc2n1)C(=O)N[C@@H](CC(=O)O)C(=O)COc1c(F)cccc1F` [Q-VD-OPH, reference compound], the “rate of cells undergoing apoptosis” value with pericardial strips was “within the range found in the cold-exposed control samples”.

On to `Oc1cc2c(cc1O)CN(C(=S)NCCc1ccc(Cl)cc1)CCC2` [capsazepine, reference compound], for which the “capsaicin effect (induced current)” value at TRPV-1 is “inhibited”.
